Structures can show the parent of a compound that is named as a salt. A value given as a limit tells only on which side of the number the result lay.

Drawing on the supplement of paper PMC12137928, this text covers IC50 cell viability for 53 compounds.

This test concerns HCT116. Conditions: 72 h. A digest of the protocol: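 Four-parameter Hill fits gave IC50 and maximal efficacy. The data were CellTiter-Glo luminescence readings in HCT116 cells, normalized so that vehicle was 0% and positive control was -100%, with pattern correction afterwards.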

As to `CC[C@H]1OC(=O)[C@H](C)[C@@H](O[C@H]2C[C@@](C)(OC)[C@@H](O)[C@H](C)O2)[C@H](C)[C@@H](O[C@@H]2O[C@H](C)C[C@H](N(C)C)[C@H]2O)[C@](C)(O)C[C@@H](C)/C(=N\OCOCCOC)[C@H](C)[C@@H](O)[C@]1(C)O` [Roxithromycin], the IC50 cell viability reads like this: (ICRF193 0 nM) above 45.8 µM; (ICRF193 200 nM) above 45.8 µM.
In the case of `CNC(C)Cc1ccccc1OC` (stereo unspecified) [Methoxyphenamine], the IC50 cell viability is, setting by setting: (ICRF193 0 nM) above 45.8 µM; (ICRF193 200 nM) above 45.8 µM.
Compound `CC(C)(O)CNc1nc(Nc2ccnc(C(F)(F)F)c2)nc(-c2cccc(C(F)(F)F)n2)n1` [Enasidenib] yielded an IC50 cell viability (ICRF193 0 nM) above 45.8 µM and an IC50 cell viability (ICRF193 200 nM) above 45.8 µM.
For `N[C@@H](C(=O)N[C@@H]1C(=O)N2C(C(=O)O)=C(Cl)CS[C@H]12)c1ccccc1` [CEFACLOR], the IC50 cell viability (ICRF193 0 nM) is above 45.8 µM and the IC50 cell viability (ICRF193 200 nM) is above 45.8 µM.
With `CN(CC1(C)CCCO1)S(=O)(=O)c1ccc(Cl)c(S(N)(=O)=O)c1` (stereo unspecified) [Mefruside], the IC50 cell viability (ICRF193 0 nM) was above 45.8 µM and the IC50 cell viability (ICRF193 200 nM) was above 45.8 µM.
Regarding `CC#CCC(C)[C@H](O)/C=C/[C@@H]1[C@H]2C/C(=C/CCCC(=O)O)C[C@H]2C[C@H]1O` (stereo partly specified) [Iloprost], the IC50 cell viability by setting is: (ICRF193 0 nM) above 45.8 µM; (ICRF193 200 nM) above 45.8 µM.
Consider `CCOC(=O)OCC/C(SC(=O)OCC)=C(\C)N(C=O)Cc1cnc(C)nc1N` [Dicethiamine hydrochloride], for which the IC50 cell viability reads like this: (ICRF193 0 nM) above 45.8 µM; (ICRF193 200 nM) above 45.8 µM.
For `CCOc1ccc2c3c1O[C@H]1[C@@H](O)C=C[C@H]4[C@@H](C2)N(C)CC[C@@]341` [Ethylmorphine], the IC50 cell viability is above 45.8 µM (ICRF193 0 nM) and above 45.8 µM (ICRF193 200 nM).
`CC(C)C[C@H]1[C@@H](c2ccccc2)OC(=O)N1CCCN1CCCCCC1` [Ipenoxazone hydrochloride] yielded an IC50 cell viability (ICRF193 0 nM) above 45.8 µM and an IC50 cell viability (ICRF193 200 nM) above 45.8 µM.
As for `Cn1c(=O)c2c(ncn2CC(O)CO)n(C)c1=O` (stereo unspecified) [Dyphylline], the IC50 cell viability runs as follows: (ICRF193 0 nM) above 45.8 µM; (ICRF193 200 nM) above 45.8 µM.
As to `COP(=S)(OC)Oc1ccc(S(N)(=O)=O)cc1` [Cythioate], the IC50 cell viability (ICRF193 0 nM) is above 45.8 µM and the IC50 cell viability (ICRF193 200 nM) is above 45.8 µM.
For the compound `COc1cc(C(=O)NCc2ccc(OCCN(C)C)cc2)cc(OC)c1OC` [Trimethobenzamide hydrochloride], the IC50 cell viability (ICRF193 0 nM) is above 45.8 µM and the IC50 cell viability (ICRF193 200 nM) is above 45.8 µM.
As for `COC1=C(OC)C(=O)C(C/C=C(\C)CC/C=C(\C)CC/C=C(\C)CC/C=C(\C)CC/C=C(\C)CC/C=C(\C)CC/C=C(\C)CC/C=C(\C)CC/C=C(\C)CCC=C(C)C)=C(C)C1=O` [Coenzyme Q10], the IC50 cell viability was above 45.8 µM (ICRF193 0 nM) and above 45.8 µM (ICRF193 200 nM).
On to `CC(=O)OCC(=O)[C@H]1CC[C@H]2[C@@H]3CCC4=CC(=O)CC[C@]4(C)[C@H]3CC[C@]12C` [Deoxycorticosterone acetate], for which the IC50 cell viability was above 45.8 µM (ICRF193 0 nM) and above 45.8 µM (ICRF193 200 nM).
Consider `CCC(Oc1ccccc1)C(=O)N[C@@H]1C(=O)N2[C@@H]1SC(C)(C)[C@@H]2C(=O)O` (stereo partly specified) [Propicillin], for which the IC50 cell viability was above 45.8 µM (ICRF193 0 nM) and above 45.8 µM (ICRF193 200 nM).
Compound `O=C(CCCN1CC=C(n2c(=O)[nH]c3ccccc32)CC1)c1ccc(F)cc1` [Droperidol] came in with an IC50 cell viability (ICRF193 0 nM) above 45.8 µM and an IC50 cell viability (ICRF193 200 nM) above 45.8 µM.
`Nc1ccc(S(=O)(=O)Nc2ccccn2)cc1` [Sulfapyridine]: the IC50 cell viability was above 45.8 µM (ICRF193 0 nM) and above 45.8 µM (ICRF193 200 nM).
On to `Cc1ncsc1CCCl` [Clomethiazole], for which the IC50 cell viability by setting is: (ICRF193 0 nM) above 45.8 µM; (ICRF193 200 nM) above 45.8 µM.
For `C=CCN1C[C@H](C(=O)N(CCCN(C)C)C(=O)NCC)C[C@@H]2c3cccc4[nH]cc(c34)C[C@H]21` [Cabergoline], the IC50 cell viability reads like this: (ICRF193 0 nM) above 45.8 µM; (ICRF193 200 nM) above 45.8 µM.
As for `C[C@@H](CO)NC(=O)[C@@H]1C=C2c3cccc4[nH]cc(c34)C[C@H]2N(C)C1` [Ergobasine], the IC50 cell viability is, setting by setting: (ICRF193 0 nM) above 45.8 µM; (ICRF193 200 nM) above 45.8 µM.
On to `CN[C@@H]1CCc2[nH]c3ccc(C(N)=O)cc3c2C1` [Frovatriptan succinate], for which the IC50 cell viability is above 45.8 µM (ICRF193 0 nM) and above 45.8 µM (ICRF193 200 nM).
In the case of `COc1ccccc1OCC(O)COC(N)=O` (stereo unspecified) [Methocarbamol], the IC50 cell viability (ICRF193 0 nM) was above 45.8 µM and the IC50 cell viability (ICRF193 200 nM) is above 45.8 µM.
`Cc1c(F)cc2c(=O)c(C(=O)O)cn3c2c1CCC3C` (stereo unspecified) [Ibafloxacine]: the IC50 cell viability by setting is: (ICRF193 0 nM) above 45.8 µM; (ICRF193 200 nM) above 45.8 µM.
As to `CN(C)CCOC(=O)COc1ccc(Cl)cc1` [Meclofenoxate hydrochloride], the IC50 cell viability is above 45.8 µM (ICRF193 0 nM) and above 45.8 µM (ICRF193 200 nM).
For `CN(CC(O)CO)C(=O)c1c(I)c(NC(=O)C(CO)CO)c(I)c(C(=O)N(C)CC(O)CO)c1I` (stereo unspecified) [IOBITRIDOL], the IC50 cell viability is, setting by setting: (ICRF193 0 nM) above 45.8 µM; (ICRF193 200 nM) above 45.8 µM.
As to `CC(C)NC(C)Cc1ccc(I)cc1` (stereo unspecified) [Iofetamine hydrochloride], the IC50 cell viability runs as follows: (ICRF193 0 nM) above 45.8 µM; (ICRF193 200 nM) above 45.8 µM.
Consider `CNC(=O)Oc1ccc2c(c1)[C@]1(C)CCN(C)[C@@H]1N2C` [Physostigmine], for which the IC50 cell viability reads like this: (ICRF193 0 nM) above 45.8 µM; (ICRF193 200 nM) above 45.8 µM.
Turning to `O=C(O)CNC(=O)c1ccccc1I` [2-Iodohippuric acid], the IC50 cell viability runs as follows: (ICRF193 0 nM) above 45.8 µM; (ICRF193 200 nM) above 45.8 µM.
Turning to `CCCCCCCCCCCCCCCCOc1nc2ccc(C)cc2c(=O)o1` [Cetilistat], the IC50 cell viability reads like this: (ICRF193 0 nM) above 45.8 µM; (ICRF193 200 nM) above 45.8 µM.
Take `N=C1NC(=O)N2CC12` (stereo unspecified) [IMEXON]: the IC50 cell viability was above 45.8 µM (ICRF193 0 nM) and above 45.8 µM (ICRF193 200 nM).
On to `CCC(=O)O[C@]1(C(=O)SCF)[C@H](C)C[C@H]2[C@@H]3C[C@H](F)C4=CC(=O)C=C[C@]4(C)[C@@]3(F)[C@@H](O)C[C@@]21C` [Fluticasone propionate], for which the IC50 cell viability reads like this: (ICRF193 0 nM) above 45.8 µM; (ICRF193 200 nM) above 45.8 µM.
Consider `CNC1CC(N)C(O)C(OC2OC(CO)C(O)C3OC4(OC(C(N)CO)C(O)C(O)C4O)OC23)C1O` (stereo unspecified) [Hygromycin B], for which the IC50 cell viability is, setting by setting: (ICRF193 0 nM) above 45.8 µM; (ICRF193 200 nM) above 45.8 µM.
`O=S(=O)(O)Oc1ccc(C(c2ccc(OS(=O)(=O)O)cc2)c2ccccn2)cc1` [Picosulfate sodium]: the IC50 cell viability runs as follows: (ICRF193 0 nM) above 45.8 µM; (ICRF193 200 nM) above 45.8 µM.
Take `O=C1CC[C@@H](C(=O)O)N1` [2-Pyrrolidone-5-carboxylic acid]: the IC50 cell viability by setting is: (ICRF193 0 nM) above 45.8 µM; (ICRF193 200 nM) above 45.8 µM.
Consider `Cc1cc(NS(=O)(=O)c2ccc(N)cc2)no1` [Sulfamethoxazole], for which the IC50 cell viability was above 45.8 µM (ICRF193 0 nM) and above 45.8 µM (ICRF193 200 nM).
As to `C=CCC1=C(C)C(OC(=O)C2C(C=C(C)C)C2(C)C)CC1=O` (stereo unspecified) [Allethrin], the IC50 cell viability by setting is: (ICRF193 0 nM) above 45.8 µM; (ICRF193 200 nM) above 45.8 µM.
Turning to `CC(C)C(Br)C(=O)NC(N)=O` (stereo unspecified) [Bromisovalum], the IC50 cell viability reads like this: (ICRF193 0 nM) above 45.8 µM; (ICRF193 200 nM) above 45.8 µM.
In turn, `O=C(O)c1ccccc1S` [2-Thiosalicylic acid] had an IC50 cell viability (ICRF193 0 nM) above 45.8 µM and an IC50 cell viability (ICRF193 200 nM) above 45.8 µM.
As to `CC(C)(C)NCC(O)c1ccc(O)c(CO)n1` (stereo unspecified) [Pirbuterol hydrochloride], the IC50 cell viability reads like this: (ICRF193 0 nM) above 45.8 µM; (ICRF193 200 nM) above 45.8 µM.
Consider `CN(CCOc1ccc(CC2SC(=O)NC2=O)cc1)c1ccccn1` (stereo unspecified) [Rosiglitazone], for which the IC50 cell viability reads like this: (ICRF193 0 nM) above 45.8 µM; (ICRF193 200 nM) above 45.8 µM.
`O=P(O)(O)C(O)(Cc1cnc2ccccn12)P(=O)(O)O` [Minodronic acid]: the IC50 cell viability by setting is: (ICRF193 0 nM) above 45.8 µM; (ICRF193 200 nM) above 45.8 µM.
For `CC1C=CC=CCCC=CC=CC=CC=CC(OC2OC(C)C(O)C(N)C2O)CC2OC(O)(CC(O)C(O)CCC(O)CC(O)CC(O)CC(=O)OC(C)C(C)C1O)CC(O)C2C(=O)O` (stereo unspecified) [NYSTATIN], the IC50 cell viability is, setting by setting: (ICRF193 0 nM) above 45.8 µM; (ICRF193 200 nM) above 45.8 µM.
With `Cc1onc(-c2c(F)cccc2Cl)c1C(=O)N[C@@H]1C(=O)N2[C@@H]1SC(C)(C)[C@@H]2C(=O)O` [Flucloxacillin sodium], the IC50 cell viability reads like this: (ICRF193 0 nM) above 45.8 µM; (ICRF193 200 nM) above 45.8 µM.
`CN(Cc1ccc(C(C)(C)C)cc1)Cc1cccc2ccccc12` [Butenafine] registered an IC50 cell viability (ICRF193 0 nM) above 45.8 µM and an IC50 cell viability (ICRF193 200 nM) above 45.8 µM.
As to `Cc1cc2c(cc1CC(=O)c1sccc1S(=O)(=O)Nc1onc(C)c1Cl)OCO2` [Sitaxentan], the IC50 cell viability was above 45.8 µM (ICRF193 0 nM) and above 45.8 µM (ICRF193 200 nM).
Consider `CC(=O)CCCCn1c(=O)c2c(ncn2C)n(C)c1=O` [Pentoxifylline], for which the IC50 cell viability (ICRF193 0 nM) was above 45.8 µM and the IC50 cell viability (ICRF193 200 nM) was above 45.8 µM.
On to `COC(=O)[C@@H]1[C@H]2C[C@H]3c4[nH]c5ccccc5c4CCN3C[C@@H]2CC[C@@H]1O` [Yohimbine], for which the IC50 cell viability runs as follows: (ICRF193 0 nM) above 45.8 µM; (ICRF193 200 nM) above 45.8 µM.
As for `CCOC(=O)C(C)(C)Oc1ccc(Cl)cc1` [Clofibrate], the IC50 cell viability is, setting by setting: (ICRF193 0 nM) above 45.8 µM; (ICRF193 200 nM) above 45.8 µM.
As to `OCC(CO)N[C@H]1C[C@](O)(CO)[C@@H](O)[C@H](O)[C@H]1O` [Voglibose], the IC50 cell viability reads like this: (ICRF193 0 nM) above 45.8 µM; (ICRF193 200 nM) above 45.8 µM.
Take `CCOC(=O)OC(C)OC1=C(C(=O)Nc2ccccn2)N(C)S(=O)(=O)c2ccccc21` (stereo unspecified) [Ampiroxicam]: the IC50 cell viability reads like this: (ICRF193 0 nM) above 45.8 µM; (ICRF193 200 nM) above 45.8 µM.
Take `O=C(Nc1c(Cl)cncc1Cl)c1ccc(OC(F)F)c(OCC2CC2)c1` [Roflumilast]: the IC50 cell viability (ICRF193 0 nM) is above 45.8 µM and the IC50 cell viability (ICRF193 200 nM) is above 45.8 µM.
As to `O=C(O)CCCCCCCC(=O)O` [Nonanedioic acid], the IC50 cell viability is, setting by setting: (ICRF193 0 nM) above 45.8 µM; (ICRF193 200 nM) above 45.8 µM.
Turning to `CCN1CCN(C(=O)N[C@@H](C(=O)N[C@]2(OC)C(=O)N3C(C(=O)O)=C(CSc4nnnn4C)CS[C@@H]32)[C@H](C)O)C(=O)C1=O` [Cefbuperazone], the IC50 cell viability is, setting by setting: (ICRF193 0 nM) above 45.8 µM; (ICRF193 200 nM) above 45.8 µM.
